Measurements published in patent US11644469B2, “HIF-1 and HIF-2 inhibitors” (UNIVERSITY OF SOUTHAMPTON, priority 2016, dated 2023).
Read-outs that look alike come from different tables or passages of the source. Residues, ends and D or L forms follow the SMILES beside them.

What was measured:
HIF-1α (Trx-1α, 1α PASB) [1] = target: T1, HIF-1α (Trx-1α, 1α PASB) (Homo sapiens, UniProt Q16665); assay: Thermal shift assay, HIF-1α; type: binding; details: 1 mM compound
T1 construct: 238-349; made in house
Method: (§1) The binding of the compounds to their targets was assessed by measuring changes in the melting temperature of their target proteins HIF-1α and HIF-2α (known as a thermal shift assay) and by microscale thermophoresis (MST). The data for the thermal shift assay is summarized in FIG. 1, while the binding constants (Kd) derived from MST is shown in FIG. 3. Compounds that are effective inhibitors decrease the melting temperatures of the proteins. […] The compounds may bind to HIF 1α/2α or 1β in order to disrupt the dimerization, and PASB may be the responsible domain.
(§2) Thermal shift data of thioredoxin-tagged longer constructs and PASB domains with the identified polypeptides are shown in FIG. 1. Compounds that are effective inhibitors decrease the melting temperatures of the proteins.
(§3) Thermal denaturation of HIF proteins was performed in 20 μL reactions in triplicate using a Bio-Rad CFX Connect Real-Time System. Proteins were used at either 5 μM (Trx-1α, Trx-2α and GST-1β) or 15 μM (His-tagged PASB domains) in HIF assay buffer, with 10 mM DTT and SYPRO orange dye (Life Technologies) at a final concentration of 8× (relative to 5000× stock), and supplemented with either DMSO or compound dissolved in DMSO at the stated concentrations. The reaction plate was assembled on ice, then transferred to the pre-chilled thermal cycler, held at 10° C. for 5 min (heated lid, 105° C.), then the temperature ramped to 95° C. Fluorescence was recorded at 0.5° C. increments, holding for 5 sec at each temperature. Data were plotted using GraphPad Prism 6, and melting temperatures calculated using the first derivative method in which the peak (i.e. the steepest transition between data points) represents the point at which 50% of the protein sample is denatured. Errors are quoted as the inherent error associated with the first derivative of the data, i.e. ±0.25° C. for Tm values and ±0.5° C. for ΔTm values.

HIF-1α (Trx-1α, 1α PASB) [2] = assay: Thermal shift assay, HIF-1α; type: binding; details: effective inhibitors decrease the melting temperature
Method: as §1, §2, §3

HIF-1β (GST-1β, 1β PASB) [3] = target: T2, HIF-1β (GST-1β, 1β PASB) (Homo sapiens, UniProt P27540); assay: Thermal shift assay, HIF-1β (negative control); type: binding; details: for activity against HIF-1β in thermal shift assay: negative control protein
T2 construct: 356-474; made in house
Method: as §1, §2, §3

HIF-2α (Trx-2α, 2α PASB) [4] = target: T3, HIF-2α (Trx-2α, 2α PASB) (Homo sapiens, UniProt Q99814); assay: Thermal shift assay, HIF-2α; type: binding; details: 1 mM compound
T3 construct: 240-350; made in house
Method: as §1, §2, §3

HIF-2α (Trx-2α, 2α PASB) [5] = assay: Thermal shift assay, HIF-2α; type: binding; details: effective inhibitors decrease the melting temperature
Method: as §1, §2, §3

HIF-1β (GST-1β, 1β PASB) [6] = assay: Thermal shift assay, HIF-1β (negative control); type: binding; details: 1 mM compound; GST-1β 5 μM
Method: as §1, §2, §3

MCF-7 cells = assay: Cell permeability and localisation by fluorescence microscopy; type: cell-based; details: 24 hr
Method: FIGS. 10A-D and 10A′-D′ show cell permeability tested using fluorescently labeled-CRVIIF (SEQ ID NO 4) in MCF-7 cells.
For initial compound permeability experiments, 1.5 mL MCF-7 cells were plated on 3 cm petri dishes (200,000 cells/plate) and grown at 37° C. After 24 hr, cells were incubated with fresh media containing the stated concentrations of fluor-CRVIIF (SEQ ID NO 4) (0.5% DMSO) or 66 μM CP-61 control compound (0.66% DMSO) for a further 24 hr. Cells were washed twice with PBS and imaged live in plates. For co-localisation experiments, an 8-well Lab-Tek Chamber Slide (Nunc) was treated with collagen prior to plating 25,000 MCF-7 cells/well. After 24 hr, cells were dosed with 300 μL fresh media containing the stated concentrations of fluor-CRVIIF (SEQ ID NO 4) (0.5% DMSO) and/or 5 μg/mL FM 4-64FX Membrane Stain (Life Technologies) and incubated for a further 24 hr. Cells were washed with 2×300 μL PBS, fixed with 150 μL 10% formalin in PBS for 5-10 min, then washed again with PBS. Growth chambers were removed and nuclear staining was achieved using Vectashield Mounting Medium with DAPI (Vector Laboratories) prior to sealing the slide with a coverslip. Cells were imaged using a fluorescent microscope.

[7] = His-tagged PASB domain 15 μM, read-out: ΔTm 1α PASB
[8] = Trx-1α 5 μM, read-out: ΔTm Trx-1α
[9] = 1 mM compound, His-tagged PASB domain 15 μM
[10] = His-tagged PASB domain 15 μM, read-out: ΔTm 2α PASB
[11] = Trx-2α 5 μM, read-out: ΔTm Trx-2α

T2 sequence (P27540 356-474): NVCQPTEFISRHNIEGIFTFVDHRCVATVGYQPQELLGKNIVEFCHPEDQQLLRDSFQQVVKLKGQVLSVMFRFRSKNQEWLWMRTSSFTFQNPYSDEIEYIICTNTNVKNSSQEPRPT

Row | Molecule | ΔTm at 1000 µM (HIF-1α (Trx-1α, 1α PASB) [1]; [7]) | ΔTm at 1000 µM (HIF-1α (Trx-1α, 1α PASB) [1]; [8]) | activity against HIF-1α in thermal shift assay (HIF-1α (Trx-1α, 1α PASB) [2]) | ΔTm at 1000 µM (HIF-1β (GST-1β, 1β PASB) [3]; [9]) | activity against HIF-1β in thermal shift assay (HIF-1β (GST-1β, 1β PASB) [3]) | ΔTm at 1000 µM (HIF-2α (Trx-2α, 2α PASB) [4]; [10]) | ΔTm at 1000 µM (HIF-2α (Trx-2α, 2α PASB) [4]; [11]) | activity against HIF-2α in thermal shift assay (HIF-2α (Trx-2α, 2α PASB) [5]) | ΔTm GST-1β (HIF-1β (GST-1β, 1β PASB) [6]) | cell permeability (MCF-7 cells) | ΔTm 1α PASB (HIF-1α (Trx-1α, 1α PASB) [1]; His-tagged PASB domain 15 μM) | ΔTm Trx-1α (HIF-1α (Trx-1α, 1α PASB) [1]; Trx-1α 5 μM) | ΔTm 1β PASB (HIF-1β (GST-1β, 1β PASB) [3]; [9]) | ΔTm 2α PASB (HIF-2α (Trx-2α, 2α PASB) [4]; His-tagged PASB domain 15 μM) | ΔTm Trx-2α (HIF-2α (Trx-2α, 2α PASB) [4]; Trx-2α 5 μM)
1 | CC[C@H](C)[C@@H]1NC(=O)[C@H](CC(C)C)NC(=O)[C@H](CC(C)C)NC(=O)[C@H](CCCNC(=N)N)NC(=O)[C@H](CS)NC(=O)[C@H](Cc2ccccc2)NC1=O [CRLLIF, cyclo-CRLLIF] (cyclo(CRLLIF); ring closure inferred) | -2 °C | 0.5 °C | show activity | -1 °C | not against HIF-1β | -4 °C | -4 °C | show activity | – | – | – | – | – | – | –
2 | CC[C@H](C)[C@@H]1NC(=O)[C@H](C(C)C)NC(=O)[C@H](CCCNC(=N)N)NC(=O)[C@H](CS)NC(=O)[C@H](Cc2ccccc2)NC(=O)[C@H]([C@@H](C)CC)NC1=O [CRVIIF, cyclo-CRVIIF] (cyclo(CRVIIF); ring closure inferred) | -1.5 °C | -1 °C | show activity | -0.5 °C | not against HIF-1β | -2.5 °C | -2 °C | show activity | −0.5 °C | – | – | – | – | – | –
3 | fluor-CRVIIF: fluorescently labelled cyclo-CRVIIF; FITC-maleimide bound to the cysteine (cyclo(C(FITC‑maleimide)RVIIF); listed as Homo sapiens) | – | – | – | – | – | – | – | – | – | appears to cross cell membrane | – | – | – | – | –
4 | CC[C@H](C)[C@@H]1NC(=O)[C@H](CC(C)C)NC(=O)[C@H](CCCCN)NC(=O)[C@H](CS)NC(=O)[C@H](Cc2ccccc2)NC(=O)[C@H]([C@@H](C)CC)NC1=O [CKLIIF] (cyclo(CKLIIF); ring closure inferred) | -1 °C | -1.5 °C | show activity | -0.5 °C | not against HIF-1β | -2.5 °C | -2.5 °C | show activity | – | – | – | – | – | – | –
5 | SGWEMIQRR (cyclic; listed as Homo sapiens) | – | – | only active against HIF-1α | – | – | – | – | – | – | – | −0.5 °C | −2.5 °C | −0.5 °C | −2.5 °C | −2 °C
